These results are taken from patent publication EP0511381B1, “SQUARYLIUM AND CROCONYLIUM DYES” (POLAROID CORPORATION, priority 1990, dated 1992).

Holding throughout (assay type): physicochemical
Data set [1] can be described thus: Solubility in dichloromethane (saturated solution). As to conditions: weight percentage of dye to solvent in a saturated solution. The source says:
This Example illustrates the high solubility in halogenated organic solvents which can be achieved by dyes of the present invention, as compared with similar dyes which bear 2-phenyl or -substituted phenyl groups.

Data set [2] in a line: Absorption and thermal stability of dye in polymer films. Set-up: λmax: unit not given here. As to conditions: for Width: full width of infra-red absorption peak at half maximum. As to the method: This Example illustrates the high absorptions which can be achieved by a dye of the present invention when dispersed in a polymer, and the thermal stability of such dispersed polymer.
The polymers tested in this Example were polystyrene/acrylonitrile, polyvinylbutyral and polyvinylformal polymers. 10.0 mg of the dye (hereinafter referred to as "Dye B") prepared as described in Example 5 above was dissolved in 2.0 mL of a 2.5% w/v solution of each polymer in dichloromethane, and the resultant solution was coated onto a transparent 4 mil polyvinyl chloride base using a No. 10 coating rod. The resultant film was oven dried at 80°C for 10 minutes. After the film had cooled, the wavelength of maximum infra-red absorption (λmax), the absorbance at λmax (Amax), and the full width of the infra-red absorption peak at half maximum were measured. The film samples were then stored in the dark for 15 days at 80°C, and the same absorption parameters were remeasured to give the data shown in Table 1, in which initial values are shown, with values after heating in parentheses.

The nature of data set [3]: Photochemical stability of dye in polymer films. As to the method:
This Example illustrates the photochemical stability of a dye of the present invention in a polymer matrix.
20 mg of Dye B prepared as described in Example 5 above and 100 mg of a test polymer (polyvinylbutyral or polyacrylate) were dissolved in dichloromethane, and the resultant solution was coated onto PET transparent base using a #4 coating rod. The maximum absorbance of the resultant film was measured before and after exposure of the coated side of the base to irradiation with a fluorescent lamp (560 ft. candles) for 24 or 67 hours. The results are shown in Table 2 below (with the absorbance after irradiation in parentheses).

Data set [4] can be described thus: Storage stability of thermal imaging medium containing the dye. As to conditions: imaging medium (dye, leuco dye LD3, polyurethane Estane 5715 binder) stored at 60°C for 4 days. The method, then: A coating fluid was prepared by combining the infra-red dye of Formula IR4 above (prepared in Example 12 above, 2.6 mg) with a leuco dye of Formula LD3 above (110 mg) and a polymeric binder (polyurethane Estane 5715, supplied by B.F. Goodrich, 0.73 mL of a 15% solution in acetone). The fluid was diluted with acetone (0.157 mL), then coated onto a 4 mil (101 »m) transparent poly(ethylene terephthalate) base using a #12 coating rod. The film so formed was laminated at 180°F […] and 60 psi (0.4 MPa) to a second sheet of 4 mil (101 »m) poly(ethylene terephthalate) which had been coated with Joncryl 138 to a thickness of approximately 2 »m.

The mark [5] stands for this setting: Polyvinylbutyral film, after 15 days at 80°C in the dark.
The mark [6] stands for this setting: Polyvinylbutyral film, initial value.
[7] abbreviates: Polyvinylformal film, after 15 days at 80°C in the dark.
[8] abbreviates: Polyvinylformal film, initial value.
[9] abbreviates: SAN (polystyrene/acrylonitrile) film, after 15 days at 80°C in the dark.
Setting [10] is: SAN (polystyrene/acrylonitrile) film, initial value.

Counter-ions that a name gives are not always drawn.

In the case of `CCN(CC)c1ccc2c(c1)OC(c1ccccc1)=CC2=CC1=C([O-])C(=Cc2cc(-c3ccccc3)[o+]c3cc(N(CC)CC)ccc23)C1=O` [Control Dye y, reference compound], in data set [1], the Solubility was found to be 0.02 wt. %.

The compound `CCN(CC)c1ccc2c(c1)OC(c1ccc(C)cc1C)=CC2=CC1=C([O-])C(=Cc2cc(-c3ccc(C)cc3C)[o+]c3cc(N(CC)CC)ccc23)C1=O` [Control Dye z, reference compound] showed a Solubility in data set [1] of 0.1 wt. %.

As for `CCN(CC)c1ccc2c(c1)OC(C(C)(C)C)=CC2=CC1=C([O-])C(=Cc2cc(C(C)(C)C)[o+]c3cc(N(CC)CC)ccc23)C1=O` [Dye B], the Amax is recorded as 2.16 in data set [2] (setting [5]); 2.99 in data set [2] (setting [6]); 2.64 in data set [2] (setting [7]); 2.62 in data set [2] (setting [8]); 2.68 in data set [2] (setting [9]); 2.59 in data set [2] (setting [10]). The Amax was found to be 0.78 in data set [3] (Polyacrylate film, after 24 hours irradiation with fluorescent lamp (560 ft. candles)); 0.84 in data set [3] (Polyacrylate film, before irradiation); 1.018 in data set [3] (Polyvinylbutyral film, after 67 hours irradiation with fluorescent lamp (560 ft. candles)); 1.225 in data set [3] (Polyvinylbutyral film, before irradiation). Moreover, the λmax in data set [2] (setting [5]) was 812; in data set [2] (setting [6]), 815; in data set [2] (setting [7]), 820 (820); in data set [2] (setting [8]), 820 (820); in data set [2] (setting [9]), 826 (826); in data set [2] (setting [10]) it was 826 (826). In addition, the Width in data set [2] (setting [5]) is reported as 79 nm; in data set [2] (setting [6]), 70 nm; in data set [2] (setting [7]), 80 (80) nm; in data set [2] (setting [8]), 80 (80) nm; in data set [2] (SAN film, after 15 days at 80°C in the dark), 74 (74) nm; in data set [2] (SAN film, initial value), 74 (74) nm. Moreover, the Solubility in data set [1] is recorded as 11.5 wt. %.

`CCN(CC)c1ccc2c(c1)OC(C1CCCCC1)=CC2=CC1=C([O-])C(=Cc2cc(C3CCCCC3)[o+]c3cc(N(CC)CC)ccc23)C1=O` [Dye F, 4-[[3-[2-cyclohexyl-7-diethylamino-(benz[b]-4H-pyran-4-ylidene)methyl]-2-hydroxy-4-oxo-2-cyclobuten-1-ylidene]methyl]-2-cyclohexyl-7-diethylaminobenz[b]pyrylium hydroxide inner salt dye]: the Solubility in data set [1] is listed as 0.4 wt. %.

For the compound `CCC(CC)COc1ccc2c(c1)OC(C(C)(C)C)=CC2=CC1=C([O-])C(=Cc2cc(C(C)(C)C)[o+]c3cc(N(CC)CC)ccc23)C1=O` [IR4, 4-[[3-[[7-diethylamino-2-[1,1-dimethylethyl]benz[b]-4H-pyran-4-ylidene]methyl]-2-hydroxy-4-oxo-2-cyclobuten-1-ylidene]methyl]-7-[2-ethylbut-1-oxy]-2-[1,1-dimethylethyl]benz[b]pyrylium hydroxide inner salt dye], in data set [4], the “loss of near infra-red absorption” value is reported as 2.4%.
